Assay results as given in patent US20130150335A1, “PACLITAXEL/STEROIDAL COMPLEX” (Institute of Mataria Medica, Chinese Academy of Medical …, priority 2009, published 2013).
Converted amounts (≈) assume the structure as drawn. Read-outs that look alike come from different tables or passages of the source.

How the values were obtained:
[1] = Solubility of paclitaxel cholesterol complex in n-octanol; type: physicochemical; details: organic solvent or mixture, thermodynamic from solid, 25° C., saturated solution, read-out: drug solubility in n-octanol
Method: Take 5 ml of the solution, filter by 0.45 μm of membrane, take an amount of the successive filtrate, dilute with absolute ethanol, carry out the ultraviolet spectrophotometry method, calculate the apparent solubility of the physical mixture and cholesterol in n-octanol, compared the results with paclitaxel.

[2] = Solubility of paclitaxel/lipid complex in oil (soybean oil, MCO, mixed oil); type: physicochemical; details: for solubility at 1 h: saturated solution
Method: Take 4 g of paclitaxel, add cholesterol, 7-dehydrocholesterol and ergosterol respectively in accordance with the amount ratio as stated in Table 2 below, move to a rotary evaporator together, dissolve with 500 ml of acetone each, mix at 45° C. for 1 hour then remove the solvent by the rotary evaporation method, vacuum dry at 65° C. for 15 hours. Take a quantity of each complex formed, add 20 g of soybean oil for injection used, heat in water bath for 1 hour and shake, obtain saturated solutions.
Using acetone as the solvent, the molar ratio of paclitaxel to cholesterol being 1:1, the reaction temperature at 35° C., the reaction time being 0.5 h, the effect of the paclitaxel concentration (16.0, 8.0, 4.0, 2.0, 1.0 and 0.5 mg/ml) on the complex preparation was investigated.
Filter the solution, take a quantity of the successive filtrate, dilute with absolute ethanol, carry out an HPLC analysis, calculate the solubility of complex in oil; take a quantity of paclitaxel, repeat the procedure.

CC(=O)O[C@H]1C(=O)[C@@]2(C)[C@H]([C@H](OC(=O)c3ccccc3)[C@]3(O)C[C@H](OC(=O)[C@H](O)[C@@H](NC(=O)c4ccccc4)c4ccccc4)C(C)=C1C3(C)C)[C@]1(OC(C)=O)CO[C@@H]1C[C@@H]2O [Paclitaxel]
solubility at 24 h [1]: 8860 µg/mL (≈ 10400 µM) | drug solubility in vegetable oil: Mixed oil ([2]; Table 4, soybean oil and MEDIUM CHAIN OIL (volume ratio of 1:1), 60° C.): 1360 µg/mL | solubility at 1 h ([2]; medium chain oil (MCO), oil or lipid, thermodynamic from solid, Table 4, MEDIUM CHAIN OIL, 60° C., read-out: drug solubility in vegetable oil: MCO): 2370 µg/mL (≈ 2780 µM) | solubility at 1 h ([2]; oil or lipid, thermodynamic from solid, Table 4, soybean oil for injection, 60° C., read-out: drug solubility in vegetable oil: Soybean oil): 270 µg/mL (≈ 316 µM) | solubility at 1 h ([2]; soybean oil for injection, oil or lipid, thermodynamic from solid, Table 2, effect of paclitaxel/steroid amount ratio, HPLC, read-out: Solubility in soybean oil): 270 µg/mL | solubility ([2]; soybean oil, oil or lipid, thermodynamic from solid, Table 1, complexes per CN200810168213.X, calculated as paclitaxel): 270 µg/mL (≈ 316 µM)
